# Test results as given in patent US20250332173A1, “COMPOUNDS AND METHODS FOR MODULATING NUCLEIC ACID SPLICING” (REMIX THERAPEUTICS INC., priority 2021, published 2025).
# pIC50: −log10 of the molar value. Read-outs that look alike come from different tables or passages of the source.
# Experiments:
# Target C [1] = assay: HiBiT protein abundance assay, Target C (Promega Nano-Glo HiBiT Lytic Detection System, knock-in K562 cell line); type: cell-based, human; settings: Homo sapiens, K562, 24 h, read-out: Effect on protein abundance, Target C (IC50 category)
# Experimental: (§1) • Promega Nano-Glo HiBiT Lytic Detection System (cat #N3030) • Corning 384-well TC-treated microplates (cat #3570) • Synthego Engineered Cells Knock-In Clones
# (§2) Cells were maintained in IMDM with 10% FBS. Before the assay, cells were diluted with […] growth media (IMDM+[…] media) and were seeded in a 384-well plate at a density of 10,000 cells/well (for each cell line listed in Table 5). Each compound was prepared as a 10-point 3-fold serial dilution in DMSO with the top dose at a final concentration of 10 μM in the well. Unmodified K562 cells were added at the previously specified density with DMSO to serve as an assay baseline and positive control (PC) and DMSO only with the respective modified cell lines was added to the negative control (NC) columns. Final DMSO concentration was kept at or below 0.25%. Treated cell plates were placed in an incubator at 37° C. with […] for 24 hours. After 24 hours, 25 μL of Complete HiBit Lytic reagent was added to each well at room temperature (e.g. one plate requiring 10 mL Lytic Buffer, 100 μL LgBiT Protein, 200 μL Lytic Substrate), shaken for 5 minutes at 600 RPM, then left to sit for 10 minutes for signal to stabilize before reading on a Spark Cyto plate reader (Tecan) with a 500 ms measurement time.
# (§3) To determine compound effects on protein abundance of each target in Table 5, the percent response for each respective cell line was calculated at each compound concentration as follows:
# (§4) For the normalized response at each concentration, a four-parameter logistical regression was fit to the data and the response was interpolated at the […] to determine a concentration for protein abundance at […] the untreated control.
# [2] = system: K562 (human chronic myelogenous leukemia) cells; assay: Cell Titer Glo 2.0 cell viability assay; type: cell-based; settings: Homo sapiens, K562, 72 h, read-out: K562 GI50
# SMN2 mRNA = assay: RT-qPCR splicing assay, SMN2 canonical junction (CJ) mRNA; type: cell-based, human; settings: Homo sapiens, read-out: SMN2 IC50 (decrease in CJ mRNA levels)
# Outline: (§5)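 Cells are plated (A673 allowed 24 h to adhere), dosed with an 11-point 3-fold series topping at 10 uM final, and incubated 24 h at 37 °C. Lysis is followed by cDNA synthesis and qPCR of the CJ transcript, normalized to a housekeeping gene.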
# Target C [3] = assay: RT-qPCR splicing assay panel, Target C canonical junction (CJ) mRNA; type: cell-based, human; settings: Homo sapiens, read-out: Target C IC50 (decrease in CJ mRNA levels)
# Outline: as §5
# HTT mRNA = assay: RT-qPCR splicing assay, HTT canonical junction (CJ) and alternative junction (AJ) mRNA; type: cell-based, human; settings: Homo sapiens
# Outline: (§6)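 Following a 24-hour incubation of A673 or K562 cells with serially diluted compound (3-fold steps, highest final 10 uM), the lysates undergo cDNA synthesis plus qPCR. Canonical and alternative junctions are each quantified against PPIA, GAPDH or GUSB.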
# HTT = assay: HiBiT protein abundance assay, HTT HiBiT K562 cell line; type: cell-based, human
# Experimental: (§7) Compounds described herein were used to screen for effects on quantitative protein abundance using a HiBit assay system (Promega). Quantitative protein abundance was determined by measuring the protein levels of HiBit-tagged protein targets expressed in cell culture via luminescence using the Nano-Glo HiBiT Lytic Detection System, which uses a split complementation assay format to reconstitute NanoBiT enzyme to generate a luminescent signal. A protein abundance assay was developed such that endogenous protein targets could be modified with the HiBiT peptide tag and their abundance could be assessed after compound treatment. Briefly, K562 cell lines containing a HiBiT-modification were treated with various compounds described herein (e.g., compounds of Formulas (I), (II), (III), (IV), (V), (VI), (VII), (VIII), or (IX)). After treatment for 24 hours, the protein abundance of a specific target was determined by measuring luminescence.
# as §1, §2, §3, §4
# MYB mRNA = assay: RT-qPCR splicing assay, MYB canonical junction (CJ) and alternative junction (AJ) mRNA; type: cell-based, human; settings: Homo sapiens
# Outline: as §6
# MYB = assay: HiBiT protein abundance assay, MYB HiBiT K562 cell line; type: cell-based, human
# Experimental: as §7, §1, §2, §3, §4
# [4] = HiBiT K562 cell line, 24 hours, top dose 10 μM
# [5] = K562 cells, 72 hours, Cell Titer Glo 2.0
# [6] = decrease in HTT canonical junction (CJ) mRNA, RT-qPCR, read-out: HTT CJ IC50
# [7] = increase in HTT alternative junction (AJ) mRNA, RT-qPCR, read-out: HTT AJ AC50
# [8] = HiBiT K562 cell line, 24 hours, top dose 10 μM; read-out: Effect on protein abundance, HTT (IC50 category)
# [9] = HiBiT K562 cell line, 24 hours, top dose 10 μM; read-out: Effect on protein abundance, MYB (IC50 category)
# [10] = Table 5 panel, canonical junction qPCR, compound concentration having 50% response in CJ decrease
SMILES,pIC50 (Target C [1]; [4]),"GI50 [2, 5]",pIC50 (HTT; [8]),pIC50 (MYB; [9]),other results
"Cc1cn2nc(-c3ccc4c(=O)n(C5CCNCC5)ccc4c3)cc(CC(=O)N(C)C)c2n1 [Compound 532, N,N-dimethyl-2-[2-methyl-6-[1-oxo-2-(4-piperidyl)-6-isoquinolyl]imidazo[1,2-b]pyridazin-8-yl]acetamide]",–,–,–,–,"pIC50 (Target C [1]): 6.00 to 7.00; GI50 [2]: 100 to 1000 nM; pIC50 (SMN2 mRNA): > 7.00; pIC50 (Target C [3]): 5.00 to 6.00; AC50 (HTT mRNA; read-out: HTT AJ AC50 (nM)): 100 to 1000 nM; IC50 (HTT mRNA; read-out: HTT CJ IC50 (nM)): 100 to 1000 nM; pIC50 (HTT mRNA; read-out: HTT IC50 (decrease in CJ mRNA levels)): 6.00 to 7.00; pIC50 (HTT; read-out: Effect on protein abundance, HTT (IC50 category); HiBiT K562 cell line, 24 hours, top dose 10 μM): 6.00 to 7.00; AC50 (MYB mRNA; read-out: MYB AJ AC50 (nM)): 100 to 1000 nM; IC50 (MYB mRNA; read-out: MYB CJ IC50 (nM)): 100 to 1000 nM; pIC50 (MYB mRNA; read-out: MYB IC50 (decrease in CJ mRNA levels)): 6.00 to 7.00; pIC50 (MYB; read-out: Effect on protein abundance, MYB (IC50 category); HiBiT K562 cell line, 24 hours, top dose 10 μM): 6.00 to 7.00"
O=c1c2c(F)cc(-c3cn[nH]c3)cc2ncn1C1CCNCC1 [Compound 321],< 5.00,> 10000 nM,< 5.00,< 5.00,"pIC50 (HTT mRNA; [6]): < 5.00; AC50 (HTT mRNA; [7]): > 10000 nM; pIC50 (MYB mRNA; decrease in MYB canonical junction (CJ) mRNA, RT-qPCR, read-out: MYB CJ IC50): 5.00 to 6.00; AC50 (MYB mRNA; increase in MYB alternative junction (AJ) mRNA, RT-qPCR, read-out: MYB AJ AC50): 1000 to 10000 nM"
Cc1cn2nc(-c3cc(O)c4c(=O)n([C@@H]5CCNC6(CC6)C5)ncc4c3)cc(C)c2n1 [Compound 470],> 7.00,100 to 1000 nM,> 7.00,6.00 to 7.00,–
Cc1cn2nc(-c3cc(C)c4c(=O)n([C@@H]5CCNC6(CC6)C5)ncc4c3)cc(C)c2n1 [Compound 468],> 7.00,100 to 1000 nM,> 7.00,> 7.00,–
Cc1c(O)c(-c2ncc3c(=O)n([C@H]4C[C@H]5CC[C@@H](C4)N5)ccc3n2)cc2cn(C)nc12 [Compound 1329],6.00 to 7.00,100 to 1000 nM,6.00 to 7.00,> 7.00,–
Cc1cc(-c2ccc3c(=O)n(C4CCNCC4)c(C)nc3c2)cc2cn(C)nc12 [Compound 313],< 5.00,1000 to 10000 nM,< 5.00,5.00 to 6.00,"pIC50 (SMN2 mRNA; [10]): 6.00 to 7.00; pIC50 (Target C [3]; [10]): < 5.00; pIC50 (HTT mRNA; [6]): < 5.00; AC50 (HTT mRNA; [7]): > 10000 nM; pIC50 (HTT mRNA; Table 5 panel, canonical junction qPCR, compound concentration having 50% response in CJ decrease, read-out: HTT IC50 (decrease in CJ mRNA levels)): < 5.00"
"Cc1c(O)c(-c2ccc3c(=O)n(C4CCNCC4)cnc3n2)cc2cn(C)nc12 [Compound 505, 7-(6-hydroxy-2,7-dimethyl-2H-indazol-5-yl)-3-(piperidin-4-yl)pyrido[2,3-d]pyrimidin-4(3H)-one]",6.00 to 7.00,100 to 1000 nM,6.00 to 7.00,6.00 to 7.00,–
Cn1cc2nc(-c3cc(F)c4c(=O)n(C5CCNC6(CC6)C5)ncc4c3)ccc2n1 (stereo not shown) [Compound 563],6.00 to 7.00,100 to 1000 nM,6.00 to 7.00,6.00 to 7.00,–
Cc1cn2nc(-c3cc(F)c4c(=O)n(C5CCNCC5)cnc4c3)cc(C#N)c2n1 [Compound 501],> 7.00,100 to 1000 nM,> 7.00,> 7.00,–
Cc1nc2c(C)cc(-c3cc(O)c4c(=O)n(C5CCNC6(CC6)C5)ncc4c3)cc2o1 (stereo not shown) [Compound 564],6.00 to 7.00,100 to 1000 nM,6.00 to 7.00,6.00 to 7.00,–
Cc1cn2nc(-c3cc(O)c4c(=O)n([C@H]5CCNC6(CC6)C5)ncc4c3)cc(C)c2n1 [Compound 469],> 7.00,< 100 nM,> 7.00,> 7.00,–
"Cc1cn2c(n1)CCC(c1cc(F)c3c(=O)n(C4CCNCC4)cnc3c1)C2 (stereo not shown) [Compound 502, 5-fluoro-7-{2-methyl-5H,6H,7H,8H-imidazo[1,2-a]pyridin-6-yl}-3-(piperidin-4-yl)quinazolin-4-one]",< 5.00,> 10000 nM,< 5.00,< 5.00,–
Cc1cn2nc(-c3cc(C)c4c(=O)n([C@H]5CCNC6(CC6)C5)ncc4c3)cc(C)c2n1 [Compound 467],6.00 to 7.00,1000 to 10000 nM,6.00 to 7.00,6.00 to 7.00,–

# Now from value to compound, other results behind:
pIC50 (Target C [1]; [4]),"GI50 [2, 5]",pIC50 (HTT; [8]),pIC50 (MYB; [9]),SMILES,other results
< 5.00,> 10000 nM,< 5.00,< 5.00,COc1c(-c2cc3ccn(C4CCNCC4)c(=O)c3cn2)cc2cn(C)nc2c1C [Compound 1218],–
6.00 to 7.00,100 to 1000 nM,6.00 to 7.00,> 7.00,Cc1c(O)c(-c2ncc3c(=O)n([C@H]4[C@@H]5CNC[C@@H]54)ccc3n2)cc2cn(C)nc12 [Compound 1326],–
> 7.00,< 100 nM,> 7.00,> 7.00,"Cn1cc2cc(-c3ccc4c(=O)n(C5CCNCC5)ccc4n3)c(O)cc2n1 [Compound 1239, 2-(6-hydroxy-2-methyl-2H-indazol-5-yl)-6-(piperidin-4-yl)-1,6-naphthyridin-5(6H)-one]",–
5.00 to 6.00,100 to 1000 nM,6.00 to 7.00,6.00 to 7.00,Cc1c(O)c(-c2ncc3c(=O)n([C@@H]4CC[C@H](N)C4)ccc3n2)cc2cn(C)nc12 [Compound 1333],–
< 5.00,< 100 nM,5.00 to 6.00,> 7.00,Cc1c(O)c(-c2ncc3c(=O)n(C45CCC(N)(CC4)CC5)ccc3n2)cc2cn(C)nc12 [Compound 1323],–
6.00 to 7.00,< 100 nM,6.00 to 7.00,> 7.00,Cc1c(O)c(-c2ncc3c(=O)n(C4CCNC(C)C4)ccc3n2)cc2cn(C)nc12 (stereo not shown) [Compound 1320],–
5.00 to 6.00,100 to 1000 nM,6.00 to 7.00,6.00 to 7.00,Cc1c(O)c(-c2ncc3c(=O)n(C4CC5CC4CN5)ccc3n2)cc2cn(C)nc12 (stereo not shown) [Compound 1325],–
> 7.00,< 100 nM,> 7.00,> 7.00,Cc1c(O)c(-c2ccc3c(=O)n(C4CCNCC4)ccc3n2)cc2cn(C)nc12 [Compound 1234],–
5.00 to 6.00,100 to 1000 nM,6.00 to 7.00,6.00 to 7.00,Cc1c(O)c(-c2ncc3c(=O)n(C4CCC(N)C4)ccc3n2)cc2cn(C)nc12 (stereo not shown) [Compound 1321],–
6.00 to 7.00,< 100 nM,> 7.00,> 7.00,Cc1c(O)c(-c2ncc3c(=O)n(C4CCNCC4)ccc3n2)cc2cn(C)nc12 [Compound 1224],–
